Data published in ChEMBL document CHEMBL5729440, “Compounds and methods for treating oxalate-related diseases” (2022).

Target: T1, 2-Hydroxyacid oxidase 1 (Homo sapiens, UniProt Q9UJM8)
T1 sequence (Q9UJM8 whole entry): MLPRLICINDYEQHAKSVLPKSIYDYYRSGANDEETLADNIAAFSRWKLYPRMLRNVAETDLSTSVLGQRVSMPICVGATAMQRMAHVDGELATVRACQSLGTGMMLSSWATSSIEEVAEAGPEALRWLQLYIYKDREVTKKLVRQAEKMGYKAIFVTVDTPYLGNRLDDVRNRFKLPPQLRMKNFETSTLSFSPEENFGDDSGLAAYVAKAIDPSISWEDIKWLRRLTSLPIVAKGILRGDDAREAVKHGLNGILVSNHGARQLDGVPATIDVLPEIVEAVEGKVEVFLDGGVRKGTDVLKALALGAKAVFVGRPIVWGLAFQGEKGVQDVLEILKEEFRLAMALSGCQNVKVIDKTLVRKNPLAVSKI
Assay: In-Vitro Human Glycolate Oxidase (hGOX) Assay: The in-vitro glycolate oxidase assay was performed using recombinant full-length human hydroxyacid oxidase 1 (HAO1), the equivalents of hGOX. The enzyme was obtained from AbCam (Catalog #ab113144) and was purified using conventional chromatography to >95% purity. Purified HAO1 was dissolved in assay buffer consisting of 10 mM NaCl, 110 mM KCl, 2 mM MgCl2, 50 mM HEPES (pH 7.4), and 0.01% Triton™ X-100. The assay used Corning 3575 384-well flat bottom, low flange, non-binding surface, black polystyrene plates.Test compounds in DMSO were preincubated at different concentrations with purified recombinant human GO (6 nM) for 10 min, followed by the addition of glycolate substrate (85 μM) to start the reaction. The plates were incubated for 10 min at room temperature, at which point Amplex red reagent (50 μM) was added.The fluorescence intensity signal was measured on a VariosKan LUX instrument using an excitation of 560 nm and an emission of 590 nm. The IC50 values were calculated using Graphpad Prism.

- IC50: 4.7 µM
SMILES: CC(C)CC#Cc1cccc(S(=O)(=O)c2[nH]nnc2C(=O)O)c1
